Values joined by “and” are separate entries in the source; they are usually repeats but may differ in a detail not shown here. Equal values may be shown once. Non-standard residues stand in square brackets, D forms with d. Residues, ends and D or L forms follow the SMILES beside them. dTrp(2-Me) = Cc1[nH]c2ccccc2c1C[C@@H](N)C(=O)O
Columns and labels:
[1] = system: young-adult male Sprague-Dawley rats; experiment: Feeding behavior (food intake) of young-adult male rats; format: in vivo, rat (Sprague-Dawley)
Method: V) Assaying the Feeding Behavior (Food Intake) of Young-Adult Male Rats
The impact of compounds of the invention being GHS receptor analogue ligands on the feeding behaviour, i.e. food intake, of young-adult male rats was assayed.
In principle, assaying the feeding behavior (food intake) of young-adult male rats was performed according to Torsello et al. (Eur. J. Pharmacol. 1998, 360: 123-129).
For the assay, young-adult male Sprague-Dawley rats (Charles River, Calco, Italy), weighing 200-250 g, were used.
Rats had 1 week of acclimation in individual home cages, and animal room conditions (22±2° C., 65% humidity, artificial light from 08.00 to 20.00 h). The following week, they were daily trained to mimic the experimental procedure. Rats maintained free access to dry pellets and tap water throughout the whole experimental period. At the end of training, rats were administered (around 10.00-11.00 a.m.) subcutaneously with the compounds to be tested (160 μg/kg body weight) and/or hexarelin (80 μg/kg body weight) and/or solvent [DMSO (0.4% of total volume), distilled water (4% of total volume), brought to the final volume with physiological saline].
Hexarelin was used to study the effects of the compounds to be tested on stimulated feeding behavior. Immediately after the injections, the animals were returned to their home cages, which contained a known amount of standard rat chow and ad libitum water. Every hour for the following 6 hours, the remaining food was carefully collected and weighed to the nearest 0.1 g. Food intake was normalized for the body weight of the rats and expressed as grams of food eaten per 100 g body weight of rats.
In the following table 4 results obtained for selected compounds of the invention are presented.

human GHS-R 1a = molecular target: T1, human GHS-R 1a (Homo sapiens, UniProt Q92847); experiment: GHS-R 1a receptor-ligand binding assay (membrane preparations from transfected LLC PK-1 cells); settings: displacement of 125I-His9-ghrelin (60 pM); membranes of LLC PK-1 cells transfected with human GHS-R 1a; mean of at least two independent experiments in triplicates
T1 construct: expressed in transfected cells; host or cells: LLC PK-1 porcine renal epithelial cells (ECACC No. 86121112), isolated plasma membranes
T1 sequence (Q92847 whole entry): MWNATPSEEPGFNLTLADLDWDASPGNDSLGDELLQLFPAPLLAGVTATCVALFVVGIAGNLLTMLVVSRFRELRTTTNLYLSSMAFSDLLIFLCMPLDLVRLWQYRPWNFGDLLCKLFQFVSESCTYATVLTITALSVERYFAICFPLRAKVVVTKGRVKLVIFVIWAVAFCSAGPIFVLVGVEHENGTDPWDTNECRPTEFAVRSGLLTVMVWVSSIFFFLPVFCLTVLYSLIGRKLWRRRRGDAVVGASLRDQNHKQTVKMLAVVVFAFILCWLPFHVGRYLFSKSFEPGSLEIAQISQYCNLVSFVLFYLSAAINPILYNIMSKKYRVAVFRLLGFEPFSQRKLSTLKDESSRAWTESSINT
In short: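 Membranes from LLC PK-1 cells expressing human GHS-R 1a incubated 60 min at 25 °C in 50 mM Tris pH 7.3, 5 mM MgCl2, 2.5 mM EDTA, bacitracin with 60 pM 125I-ghrelin and competitor; nonspecific binding with 10^-6 M ghrelin; filtration read-out.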

[2] = system: GH concentration in the plasma of male rat pups; experiment: In vivo GH concentration in the plasma of male rat pups; parameters: species or system rat (Sprague-Dawley); settings: rat pup plasma
Method: IV) Assaying In Vivo GH Concentration in the Plasma of Male Rat Pups
GH plasma concentrations of male rat pubs were assayed to characterize the modulation effect (antagonistic or agonistic) of the compounds of the invention being GHS receptor analogue ligands.
In principle, assaying in vivo GH concentration in rat plasma was performed according to Torsello et al. (Eur. J. Pharmacol. 1998, 360: 123-129).
Male Sprague-Dawley rat pups (Charles River, Calco, Italy) were separated on postnatal day seven from their mothers and randomly redistributed to the dams, so that each one nurtured ten to twelve pups. On postnatal day ten, the pups were again separated from their mothers.
The compounds to be tested were dissolved in solvent [DMSO (0.4% of total volume), distilled water (4% of total volume), brought to the final volume with physiological saline].
One hour after separation from their mothers, the pups were given isovolumetric amounts of the compounds to be tested (160 μg/kg body weight s.c.) at time −10 min and then administered with hexarelin (80 μg/kg body weight s.c.) or solvent at time 0 min before being killed 15 min later by decapitation. Trunk blood was collected, immediately centrifuged and plasma samples were stored at −20° C. until assayed for the determination of GH concentrations.
Plasma GH concentrations were measured using a rat growth hormone enzyme immunoassay kit (SPIbio, France, cat. no. 589601) according to the manufacturer's instructions. Values are expressed in terms of NIDDK rat-GH-RP2 standard (potency 2 IU/mg) as ng/mL of plasma
The limit of detection calculated as the concentration producing 15% displacement of initial tracer was 0.5 ng/ml; intra-assay and inter-assay coefficient of variation are 4% (n=24) and 14% (n=9).
In the following table 3 results obtained for selected compounds of the invention are presented.

[3] = compound 160 μg/kg s.c. + hexarelin 80 μg/kg s.c.
[4] = compound alone, 160 μg/kg body weight s.c.
[5] = compound 160 μg/kg s.c. at -10 min + hexarelin 80 μg/kg s.c. at 0 min, killed 15 min later
[6] = compound alone 160 μg/kg body weight s.c. at -10 min, solvent at 0 min, killed 15 min later

IC50 (human GHS-R 1a) [nM] | SMILES | Cumulative food intake (after 2 hours) [1, 3] [g food/100 g body weight] | Cumulative food intake (after 6 hours) [1, 3] [g food/100 g body weight] | Cumulative food intake (after 2 hours) [1, 4] [g food/100 g body weight] | Cumulative food intake (after 6 hours) [1, 4] [g food/100 g body weight] | GH concentration [2, 5] | GH concentration [2, 6] | GH concentration ([2]; hexarelin alone 80 μg/kg body weight s.c.)
160 | COc1ccc(Cn2c(CCc3c[nH]c4ccccc34)nnc2[C@@H](Cc2c[nH]c3ccccc23)NC(=O)C(C)(C)N)c(OC)c1 [compound 1, (R)—N-(1-(5-(2-(1H-indol-3-yl)ethyl)-4-(2,4-dimethoxybenzyl)-4H-1,2,4-triazol-3-yl)-2-(1H-indol-3-yl)ethyl)-2-amino-2-methylpropanamide] | 0.06 ± 0.02 | 0.33 ± 0.21 | 0.02 ± 0.002 | 0.06 ± 0.03 | 80.22 ± 18.66 ng/mL | – | –
46 | CC(C)(N)C(=O)N[C@H](Cc1c[nH]c2ccccc12)c1nnc(CCCc2c[nH]c3ccccc23)n1Cc1ccccc1 [compound 9, (R)—N-(1-(5-(3-(1H-indol-3-yl)propyl)-4-benzyl-4H-1,2,4-triazol-3-yl)-2-(1H-indol-3-yl)ethyl)-2-amino-2-methylpropanamide] | 0.0104 ± 0.0032 | 0.0231 ± 0.0032 | 0.01 ± 0 | 0.01 ± 0 | 183.562 ± 16.729 ng/mL | 13.016 ± 1.960 ng/mL | –
171 | CC(C)(N)C(=O)N[C@H](Cc1c[nH]c2ccccc12)c1nnc(Cc2ccccc2)n1Cc1ccc(F)cc1 [compound 30, (R)—N-(1-(4-(4-fluorobenzyl)-5-benzyl-4H-1,2,4-triazol-3-yl)-2-(1H-indol-3-yl)ethyl)-2-amino-2-methylpropanamide] | 1.350 ± 0.177 | 1.449 ± 0.213 | 0.264 ± 0.244 | 0.277 ± 0.246 | – | – | –
0.5 | COc1ccc(Cn2c(CCc3c[nH]c4ccccc34)nnc2[C@@H](Cc2c[nH]c3ccccc23)NC(=O)C2CCNCC2)c(OC)c1 [compound 31, (R)—N-(1-(5-(2-(1H-indol-3-yl)ethyl)-4-(2,4-dimethoxybenzyl)-4H-1,2,4-triazol-3-yl)-2-(1H-indol-3-yl)ethyl)piperidine-4-carboxamide] | – | – | – | – | 103.528 ± 14.094 ng/mL | 119.937 ± 33.054 ng/mL | –
112 | COc1ccc(Cn2c(CCc3c[nH]c4ccccc34)nnc2[C@@H](Cc2c[nH]c3ccccc23)NC(=O)c2ccccc2N)c(OC)c1 [compound 38, (R)—N-(1-(5-(2-(1H-indol-3-yl)ethyl)-4-(2,4-dimethoxybenzyl)-4H-1,2,4-triazol-3-yl)-2-(1H-indol-3-yl)ethyl)-2-aminobenzamide] | 0.002 ± 0.002 | 0.478 ± 0.141 | 0.001 ± 0 | 0.076 ± 0.096 | – | – | –
– | CC(C)(N)C(=O)N[C@H](Cc1c[nH]c2ccccc12)c1nnc(Cc2ccccc2)n1Cc1ccccn1 [compound 39, (R)—N-(1-(5-benzyl-4-(pyridin-2-ylmethyl)-4H-1,2,4-triazol-3-yl)-2-(1H-indol-3-yl)ethyl)-2-amino-2-methylpropanamide] | – | – | – | – | 82.481 ± 11.530 ng/mL and 82.481 ± 11.53 ng/mL | 5.509 ± 1.950 ng/mL and 5.509 ± 1.95 ng/mL | –
– | COc1ccc(Cn2c(CCc3ccccc3)nnc2[C@@H](Cc2c[nH]c3ccccc23)NC(=O)[C@@H]2CCCCN2)cc1 [compound 48, (S)—N—((R)-1-(4-(4-methoxybenzyl)-5-phenethyl-4H-1,2,4-triazol-3-yl)-2-(1H-indol-3-yl)ethyl)piperidine-2-carboxamide] | – | – | – | – | 145.946 ± 12.159 ng/mL | 6.096 ± 2.091 ng/mL | –
– | COc1ccc(Cn2c(CCc3ccccc3)nnc2[C@@H](Cc2c[nH]c3ccccc23)NC(=O)CN)cc1 [compound 50, (R)—N-(1-(4-(4-methoxybenzyl)-5-phenethyl-4H-1,2,4-triazol-3-yl)-2-(1H-indol-3-yl)ethyl)-2-aminoacetamide] | 0.003 ± 0.002 | 0.017 ± 0.001 | 0.012 ± 0.008 | 0.039 ± 0.011 | 164.459 ± 4.443 ng/mL | 9.852 ± 1.040 ng/mL | –
– | COc1ccc(Cn2c(CCc3c[nH]c4ccccc34)nnc2[C@H](N)Cc2c[nH]c3ccccc23)c(OC)c1 [compound 74, (R)-1-(5-(2-(1H-indol-3-yl)ethyl)-4-(2,4-dimethoxybenzyl)-4H-1,2,4-triazol-3-yl)-2-(1H-indol-3-yl)ethanamine] | – | – | – | – | 194.564 ± 7.658 ng/mL | 10.571 ± 0.791 ng/mL | –
1.9 | COc1ccc(Cn2c(CCc3c[nH]c4ccccc34)nnc2[C@@H](Cc2c[nH]c3ccccc23)NC(=O)c2ccccn2)cc1 [compound 80, (R)—N-(1-(5-(2-(1H-indol-3-yl)ethyl)-4-(4-methoxybenzyl)-4H-1,2,4-triazol-3-yl)-2-(1H-indol-3-yl)ethyl)picolinamide] | 0.475 ± 0.196 | 0.733 ± 0.238 | 0.145 ± 0.143 | 0.346 ± 0.159 | – | – | –
– | Cc1[nH]c2ccccc2c1C[C@@H](NC(=O)[C@@H](N)Cc1cnc[nH]1)C(=O)N[C@@H](C)C(=O)N[C@@H](Cc1c[nH]c2ccccc12)C(=O)N[C@H](Cc1ccccc1)C(=O)N[C@@H](CCCCN)C(N)=O [hexarelin, Hexarelin, reference compound] (H-H[dTrp(2-Me)]AW[dF]K-NH2) | – | – | – | – | – | – | 170.101 ± 13.226 ng/mL and 253.820 ± 12.268 ng/mL and 162.839 ± 21.095 ng/mL

SMILES | IC50 (human GHS-R 1a) [nM] | Cumulative food intake (after 2 hours) [1, 3] [g food/100 g body weight] | Cumulative food intake (after 6 hours) [1, 3] [g food/100 g body weight] | Cumulative food intake (after 2 hours) [1, 4] [g food/100 g body weight] | Cumulative food intake (after 6 hours) [1, 4] [g food/100 g body weight] | GH concentration [2, 5] | GH concentration [2, 6] | GH concentration ([2]; hexarelin alone 80 μg/kg body weight s.c.)
CC(C)(N)C(=O)N[C@H](Cc1c[nH]c2ccccc12)c1nnc(CCCc2c[nH]c3ccccc23)n1CCc1c[nH]c2ccccc12 [compound 24, (R)—N-(1-(4-(2-(1H-indol-3-yl)ethyl)-5-(3-(1H-indol-3-yl)propyl)-4H-1,2,4-triazol-3-yl)-2-(1H-indol-3-yl)ethyl)-2-amino-2-methylpropanamide] | 29 | 0.586 ± 0.252 | 0.912 ± 0.359 | 0.008 ± 0.008 | 0.215 ± 0.200 | – | – | –

Reference: patent US8710089B2, “Triazole derivatives as ghrelin analogue ligands of growth hormone secretagogue receptors” (Zentaris GmbH, priority 2005, dated 2014)
